Source: patent US10343992B2, “1-cyano-pyrrolidine compounds as USP30 inhibitors” (MISSION THERAPEUTICS LIMITED, priority 2015, dated 2019)

Target: USP30 (Homo sapiens (Human), UniProt Q70CQ3)
Experiment: USP30 biochemical FP or FI IC50 assay
Conditions: read-out: IC50 range
Method in brief: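 Human USP30 preincubated 30 min at room temperature with compound (8-point series, 100 µM top final) in Tris pH 7.5, Tween 20, BSA, 5 mM β-mercaptoethanol, in duplicate. FP format: 50 nM TAMRA-peptide–isopeptide-ubiquitin substrate, ex 540/em 590. FI format: 100 nM ubiquitin-rhodamine 110, ex 487/em 535. Both read at 0 and after 2 h at room temperature.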

Sequence of USP30 (Q70CQ3 57-517): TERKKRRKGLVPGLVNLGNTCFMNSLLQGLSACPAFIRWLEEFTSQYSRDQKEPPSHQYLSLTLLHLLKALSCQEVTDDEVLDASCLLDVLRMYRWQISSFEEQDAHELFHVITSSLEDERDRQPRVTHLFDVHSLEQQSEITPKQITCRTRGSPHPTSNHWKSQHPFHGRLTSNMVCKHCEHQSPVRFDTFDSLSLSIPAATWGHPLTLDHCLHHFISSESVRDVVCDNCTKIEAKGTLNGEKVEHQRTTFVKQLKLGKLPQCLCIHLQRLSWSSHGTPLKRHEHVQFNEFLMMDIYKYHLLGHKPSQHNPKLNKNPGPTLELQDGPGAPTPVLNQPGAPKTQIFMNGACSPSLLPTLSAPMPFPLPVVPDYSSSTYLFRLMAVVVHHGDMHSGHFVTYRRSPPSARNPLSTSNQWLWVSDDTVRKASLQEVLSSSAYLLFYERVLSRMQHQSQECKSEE

COCCn1cc(-c2ccc(C(=O)N[C@@H]3CCN(C#N)C3)c(F)c2)cn1 [Example 82, (R)-N-(1-cyanopyrrolidin-3-yl)-2-fluoro-4-(1-(2-methoxyethyl)-1H-pyrazol-4-yl)benzamide]
IC50: 100 to 1000 nM

Cn1cc(-c2ccc3nc(C(=O)N[C@@H]4CCN(C#N)C4)[nH]c3c2)cn1 [Example 83, (R)-N-(1-cyanopyrrolidin-3-yl)-6-(1-methyl-1H-pyrazol-4-yl)-1H-benzo[d]imidazole-2-carboxamide]
IC50: 100 to 1000 nM

Cn1cc(-c2ccc3cc(C(=O)N[C@@H]4CCN(C#N)C4)[nH]c3c2)cn1 [Example 84, (R)-N-(1-cyanopyrrolidin-3-yl)-6-(1-methyl-1H-pyrazol-4-yl)-1H-indole-2-carboxamide]
IC50: 100 to 1000 nM

N#CN1CC[C@@H](NC(=O)c2ccc(-c3cn[nH]c3C(F)(F)F)cc2F)C1 [Example 85, (R)-N-(1-cyanopyrrolidin-3-yl)-2-fluoro-4-(5-(trifluoromethyl)-1H-pyrazol-4-yl)benzamide]
IC50: < 100 nM

Cn1ncc2cc(-c3ccc(C(=O)N[C@@H]4CCN(C#N)C4)c(F)c3)ccc21 [Example 86, (R)-N-(1-cyanopyrrolidin-3-yl)-2-fluoro-4-(1-methyl-1H-indazol-5-yl)benzamide]
IC50: < 100 nM

CN(C(=O)c1ccc(-c2cnn(C)c2)c(F)c1)[C@@H]1CCN(C#N)C1 [Example 87, (R)-N-(1-cyanopyrrolidin-3-yl)-3-fluoro-N-methyl-4-(1-methyl-1H-pyrazol-4-yl)benzamide]
IC50: 100 to 1000 nM

CN(C(=O)c1nc2ccc(-c3cnn(C)c3)cc2[nH]1)[C@@H]1CCN(C#N)C1 [Example 88, (R)-N-(1-cyanopyrrolidin-3-yl)-N-methyl-6-(1-methyl-1H-pyrazol-4-yl)-1H-benzo[d]imidazole-2-carboxamide]
IC50: 100 to 1000 nM

CN(C(=O)N1CC(Oc2ccccc2)C1)[C@@H]1CCN(C#N)C1 [Example 89, (R)—N-(1-cyanopyrrolidin-3-yl)-N-methyl-3-phenoxyazetidine-1-carboxamide]
IC50: 100 to 1000 nM

N#CN1C[C@H]2CCN(C(=O)Nc3ccc(C(F)(F)F)cc3F)[C@H]2C1 [Example 90, (3aR,6aR)-5-cyano-N-(2-fluoro-4-(trifluoromethyl)phenyl)hexahydropyrrolo[3,4-b]pyrrole-1(2H)-carboxamide]
IC50: < 100 nM

N#CN1CC[C@@H](NC(=O)c2ccc(Nc3ncccn3)cc2F)C1 [Example 91, (R)—N-(1-cyanopyrrolidin-3-yl)-2-fluoro-4-(pyrimidin-2-ylamino)benzamide]
IC50: < 100 nM

Cn1cc(-c2ccc(C(=O)NC3(C)CCN(C#N)C3)c(F)c2)cn1 (centres unmarked) [Example 94, N-(1-cyano-3-methylpyrrolidin-3-yl)-2-fluoro-4-(1-methyl-1H-pyrazol-4-yl)benzamide]
IC50: 1000 to 10000 nM

COc1ccc(-c2cc(C(=O)N[C@@H]3CCN(C#N)C3)n[nH]2)cc1 [Example 95, (R)-N-(1-cyanopyrrolidin-3-yl)-5-(4-methoxyphenyl)-1H-pyrazole-3-carboxamide]
IC50: < 100 nM

N#CN1CC[C@@H](NC(=O)c2cc(-c3ccccn3)[nH]n2)C1 [Example 96, (R)-N-(1-cyanopyrrolidin-3-yl)-5-(pyridin-2-yl)-1H-pyrazole-3-carboxamide]
IC50: 100 to 1000 nM

COc1ccccc1-c1cc(C(=O)N[C@@H]2CCN(C#N)C2)n[nH]1 [Example 97, (R)-N-(1-cyanopyrrolidin-3-yl)-5-(2-methoxyphenyl)-1H-pyrazole-3-carboxamide]
IC50: < 100 nM

N#CN1CC[C@@H](NC(=O)c2cc(-c3ccccc3F)[nH]n2)C1 [Example 98, (R)-N-(1-cyanopyrrolidin-3-yl)-5-(2-fluorophenyl)-1H-pyrazole-3-carboxamide]
IC50: < 100 nM

N#CN1CC[C@@H](NC(=O)c2ccc(N3CCOCC3)nc2)C1 [Example 99, (R)-N-(1-cyanopyrrolidin-3-yl)-6-morpholinonicotinamide]
IC50: 100 to 1000 nM

COc1ccc(-c2cc(C(=O)N[C@@H]3CCN(C#N)C3)on2)cc1 [Example 100, (R)-N-(1-cyanopyrrolidin-3-yl)-3-(4-methoxyphenyl)isoxazole-5-carboxamide]
IC50: < 100 nM

N#CN1CC[C@@H](NC(=O)c2n[nH]c3ccccc23)C1 [Example 101, (R)-N-(1-cyanopyrrolidin-3-yl)-1H-indazole-3-carboxamide]
IC50: 100 to 1000 nM

N#CN1CC[C@@H](NC(=O)c2cc(-c3ccccc3)[nH]n2)C1 [Example 102, (R)-N-(1-cyanopyrrolidin-3-yl)-phenyl-1H-pyrazole-3-carboxamide]
IC50: < 100 nM

N#CN1CC[C@@H](NC(=O)c2cc(-c3cccnc3)[nH]n2)C1 [Example 103, (R)-N-(1-cyanopyrrolidin-3-yl)-5-(pyridin-3-yl)-1H-pyrazole-3-carboxamide]
IC50: 100 to 1000 nM

Cn1cc(-c2cccc(C(=O)N[C@@H]3CCN(C#N)C3)c2F)cn1 [Example 104, (R)-N-(1-cyanopyrrolidin-3-yl)-2-fluoro-3-(1-methyl-1H-pyrazol-4-yl)benzamide]
IC50: 100 to 1000 nM

Cc1nccc(-c2ccc(C(=O)N[C@@H]3CCN(C#N)C3)c(F)c2)n1 [Example 105, (R)-N-(1-cyanopyrrolidin-3-yl)-2-fluoro-4-(2-methylpyrimidin-4-yl)benzamide]
IC50: < 100 nM

Cn1cc(-c2ccc(C(=O)N[C@@H]3CCN(C#N)C3)nc2)cn1 [Example 106, (R)-N-(1-cyanopyrrolidin-3-yl)-5-(1-methyl-1H-pyrazol-4-yl)picolinamide]
IC50: 100 to 1000 nM

Cn1cc(-c2ccc(F)c(C(=O)N[C@@H]3CCN(C#N)C3)c2)cn1 [Example 107, (R)-N-(1-cyanopyrrolidin-3-yl)-2-fluoro-5-(1-methyl-1H-pyrazol-4-yl)benzamide]
IC50: 100 to 1000 nM

N#CN1CC[C@@H](NC(=O)c2ccc(-c3ccncn3)cc2F)C1 [Example 108, (R)-N-(1-cyanopyrrolidin-3-yl)-2-fluoro-4-(pyrimidin-4-yl)benzamide]
IC50: 100 to 1000 nM

N#CN1CC[C@@H](NC(=O)c2ccc(-c3cnc4nccn4c3)cc2F)C1 [Example 109, (R)-N-(1-cyanopyrrolidin-3-yl)-2-fluoro-4-(imidazo[1,2-a]pyrimidin-6-yl)benzamide]
IC50: 100 to 1000 nM

COc1cc(-c2cnn(C)c2)ccc1C(=O)N[C@@H]1CCN(C#N)C1 [Example 110, (R)-N-(1-cyanopyrrolidin-3-yl)-2-methoxy-4-(1-methyl-1H-pyrazol-4-yl)benzamide]
IC50: 100 to 1000 nM

Cn1cc(-c2ccc(C(=O)N[C@@H]3CCN(C#N)C3)cn2)cn1 [Example 111, (R)-N-(1-cyanopyrrolidin-3-yl)-6-(1-methyl-1H-pyrazol-4-yl)nicotinamide]
IC50: 100 to 1000 nM

Cn1cc(-c2cc(F)c(C(=O)N[C@@H]3CCN(C#N)C3)c(F)c2)cn1 [Example 113, (R)-N-(1-cyanopyrrolidin-3-yl)-2,6-difluoro-4-(1-methyl-1H-pyrazol-4-yl)benzamide]
IC50: 100 to 1000 nM

Cn1cc(-c2ccc3c(C(=O)N[C@@H]4CCN(C#N)C4)cnn3c2)cn1 [Example 114, (R)-N-(1-cyanopyrrolidin-3-yl)-6-(1-methyl-1H-pyrazol-4-yl)pyrazolo[1,5-a]pyridine-3-carboxamide]
IC50: 100 to 1000 nM

COc1c(-c2cnn(C)c2)ccc(C(=O)N[C@@H]2CCN(C#N)C2)c1F [Example 115, (R)-N-(1-cyanopyrrolidin-3-yl)-2-fluoro-3-methoxy-4-(1-methyl-1H-pyrazol-4-yl)benzamide]
IC50: 100 to 1000 nM

N#Cc1cccc(-c2ccc3nc(C(=O)N[C@@H]4CCN(C#N)C4)cn3c2)c1 [Example 116, (R)-6-(3-cyanophenyl)-N-(1-cyanopyrrolidin-3-yl)imidazo[1,2-a]pyridine-2-carboxamide]
IC50: < 100 nM

N#Cc1ccc(-c2ccc3nc(C(=O)N[C@@H]4CCN(C#N)C4)cn3c2)cc1 [Example 117, (R)-6-(4-cyanophenyl)-N-(1-cyanopyrrolidin-3-yl)imidazo[1,2-a]pyridine-2-carboxamide]
IC50: 100 to 1000 nM

N#CN1CC[C@@H](NC(=O)c2ccc(-c3ccc4nccn4c3)cc2F)C1 [Example 118, (R)-N-(1-cyanopyrrolidin-3-yl)-2-fluoro-4-(imidazo[1,2-a]pyridin-6-yl)benzamide]
IC50: < 100 nM

N#CN1CC[C@@H](NC(=O)c2ccc(-c3ccnc(N4CCOCC4)c3)cc2F)C1 [Example 119, (R)-N-(1-cyanopyrrolidin-3-yl)-2-fluoro-4-(2-morpholinopyridin-4-yl)benzamide]
IC50: < 100 nM

Cn1ncc2cc(-c3cnc(C(=O)N[C@@H]4CCN(C#N)C4)c(F)c3)ccc21 [Example 120, (R)-N-(1-cyanopyrrolidin-3-yl)-3-fluoro-5-(1-methyl-1H-indazol-5-yl)picolinamide]
IC50: < 100 nM

Cn1ccc2cc(-c3cnc(C(=O)N[C@@H]4CCN(C#N)C4)c(F)c3)cnc21 [Example 121, (R)-N-(1-cyanopyrrolidin-3-yl)-3-fluoro-5-(1-methyl-1H-pyrrolo[2,3-b]pyridin-5-yl)picolinamide]
IC50: < 100 nM

Cc1nn(C)cc1-c1cnc(C(=O)N[C@@H]2CCN(C#N)C2)c(F)c1 [Example 122, (R)-N-(1-cyanopyrrolidin-3-yl)-5-(1,3-dimethyl-1H-pyrazol-4-yl)-3-fluoropicolinamide]
IC50: 100 to 1000 nM

N#CN1CC[C@@H](NC(=O)c2ncc(-c3ccc(F)cc3)cc2Cl)C1 [Example 123, (R)-3-chloro-N-(1-cyanopyrrolidin-3-yl)-5-(4-fluorophenyl)picolinamide]
IC50: < 100 nM

Cn1cc(-c2ccc3nc(C(=O)N[C@@H]4CCN(C#N)C4)cn3c2)cn1 [Example 124, (R)-N-(1-cyanopyrrolidin-3-yl)-6-(1-methyl-1H-pyrazol-4-yl)imidazo[1,2-a]pyridine-2-carboxamide]
IC50: 100 to 1000 nM

Cc1nn(C)cc1-c1ccc2nc(C(=O)N[C@@H]3CCN(C#N)C3)cn2c1 [Example 125, (R)-N-(1-cyanopyrrolidin-3-yl)-6-(1,3-dimethyl-1H-pyrazol-4-yl)imidazo[1,2-a]pyridine-2-carboxamide]
IC50: 100 to 1000 nM
